Like-named read-outs stand apart in the source and are kept apart here.
Key:
VR1eGFP-expressing cells = assay type: cell-based
trigeminal ganglion [1] = system: trigeminal ganglion; design: species or system Sprague Dawley rats; settings: rat, in vivo
[2] = design: species or system Sprague Dawley rats; settings: rat, in vivo
VR1eGFP [3] = target: T1, VR1eGFP (Rattus norvegicus, UniProt O35433); assay type: cell-based; settings: 1 nM
T1 construct: expressed in transfected cells; host or cells: Cos7 and HEK293 cells, transient transfection

[4] = system: C-fiber neurons of the trigeminal ganglion; design: species or system Sprague Dawley rats; settings: rat, in vivo
[5] = rat, in vivo, cited from earlier work
[6] = design: species or system Sprague Dawley rats; settings: rat, in vivo; remark: listed apart in the source
VR1eGFP [7] = target: T1, VR1eGFP; experiment: cell-based; settings: N=3; read-out: ED50 of induced Ca2+ uptake
VR1eGFP [8] = target: T1, VR1eGFP; assay type: cell-based
trigeminal ganglion [9] = assay type: in vivo, Sprague Dawley rats
dorsal root ganglion = system: dorsal root ganglion; design: species or system patient; settings: human, in vivo
[10] = target: T2, VR1ε (C-terminal epsilon epitope-tagged vanilloid 1 receptor) (Rattus norvegicus, UniProt O35433); assay type: cell-based
T2 construct: expressed in transfected cells; host or cells: NIH 3T3 cells, G418-selected colony A5, pMTH-VR1ε plasmid

eGFP- and e-tagged VR1 = target: T3, eGFP- and e-tagged VR1 (Rattus norvegicus, UniProt O35433); assay type: binding
T3 construct: expressed in transfected cells; host or cells: Cos7 cells
T3 sequence (O35433 whole entry): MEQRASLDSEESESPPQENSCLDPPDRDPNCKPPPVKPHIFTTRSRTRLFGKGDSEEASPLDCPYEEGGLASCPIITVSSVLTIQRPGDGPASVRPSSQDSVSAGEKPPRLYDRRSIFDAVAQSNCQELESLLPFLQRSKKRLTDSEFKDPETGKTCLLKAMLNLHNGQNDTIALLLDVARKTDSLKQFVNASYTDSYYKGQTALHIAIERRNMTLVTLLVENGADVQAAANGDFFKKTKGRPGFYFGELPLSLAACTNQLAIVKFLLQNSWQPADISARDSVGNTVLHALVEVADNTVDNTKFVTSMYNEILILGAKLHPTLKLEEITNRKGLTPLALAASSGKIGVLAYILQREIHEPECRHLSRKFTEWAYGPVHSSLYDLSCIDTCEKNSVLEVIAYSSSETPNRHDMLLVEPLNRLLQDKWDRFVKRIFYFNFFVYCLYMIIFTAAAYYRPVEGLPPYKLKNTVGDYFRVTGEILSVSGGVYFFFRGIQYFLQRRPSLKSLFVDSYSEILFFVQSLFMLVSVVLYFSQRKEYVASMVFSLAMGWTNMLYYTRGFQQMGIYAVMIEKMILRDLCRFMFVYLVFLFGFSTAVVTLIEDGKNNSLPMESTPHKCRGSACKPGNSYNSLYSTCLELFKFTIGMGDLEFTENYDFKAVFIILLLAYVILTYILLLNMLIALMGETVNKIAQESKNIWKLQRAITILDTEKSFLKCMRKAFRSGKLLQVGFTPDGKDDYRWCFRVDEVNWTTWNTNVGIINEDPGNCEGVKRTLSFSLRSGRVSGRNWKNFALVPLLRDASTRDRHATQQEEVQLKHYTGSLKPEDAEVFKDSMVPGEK

T1 sequence (O35433 whole entry): as above
T2 sequence (O35433 whole entry): as above

Structure (SMILES): C=C(C)[C@]12C[C@@H](C)[C@@]34O[C@](Cc5ccccc5)(O[C@@H]1[C@@H]3C=C(COC(=O)Cc1ccc(O)c(OC)c1)C[C@]1(O)C(=O)C(C)=C[C@@H]41)O2 [RTX, Resiniferatoxin]
- ER, plasma membrane and mitochondria morphology (VR1eGFP-expressing cells): dramatic fragmentation of the ER
- nuclear membrane fragmentation at lower doses (VR1eGFP-expressing cells): slower nuclear membrane fragmentation
- mitochondrial reaction (VR1eGFP-expressing cells; 1 nM): mitochondria reacted rapidly
- time to bursting of the plasma membrane (VR1eGFP-expressing cells; 1 nM): about 45 minutes
- plasma extravasation (trigeminal ganglion [1]): dramatic blockade
- mechanical pinch sensitivity [2]: No attenuation
- peak [Ca2+]i (VR1eGFP [3]): 500 nM
- time to elevation of [Ca2+]i (VR1eGFP [3]): ≤ 10 s
- fate of CGRP-stained cells in the injected ganglion [4]: killed
- time without restoration of pain sensitivity (thermal analgesia) ([5]; sc): over 7 days
- paw withdrawal latency [6]: 18 ± 1.2 s
- EC50 (VR1eGFP [7]): 0.1 ± 0.05 nM
- currents and capacitance change in non-transfected cells (VR1eGFP [8]): neither evoked currents nor induced a change in capacitance
- loss of plasma membrane (VR1eGFP [8]): about 600 μm^2
- receptor desensitization (VR1eGFP [8]): complete desensitization
- drop of membrane capacitance of VR1eGFP-transfected cells (VR1eGFP [8]; 125 pM): 6±2.5 pF
- eye wipes in the first minute (trigeminal ganglion [9]; n=4): 7±3 wipes
- eye wipes in the first minute (trigeminal ganglion [9]; rat, in vivo): no eye wipes
- symptoms of chronic pain (dorsal root ganglion): reduction of the symptoms of chronic pain
- 45Ca2+-uptake above the base line of non-transfected NIH3T3 cells [10]: > 50 fold

Structure (SMILES): COc1cc(CNC(=O)CCCC/C=C/C(C)C)ccc1O [capsaicin]
- mitochondrial reaction (VR1eGFP-expressing cells; 1 uM): mitochondria reacted rapidly
- thermal analgesia [5]: No thermal analgesia
- current induced in voltage-clamped VR1eGFP cells (VR1eGFP [8]): induced a large inward current

Structure (SMILES): Oc1cc2c(cc1O)CN(C(=S)NCCc1ccc(Cl)cc1)CCC2 [capsazepine]
- effect on VR1eGFP-mediated current (VR1eGFP [8]): attenuated
- inhibition of [3H]RTX binding (eGFP- and e-tagged VR1): almost completely inhibited
